Reference: the supplement of paper PMC11061612

Legend:
Capivasertib = compound: C1CN(CCC1(C(=O)N[C@@H](CCO)C2=CC=C(C=C2)Cl)N)C3=NC=NC4=C3C=CN4 [Capivasertib]; conditions: max 10 µM
Outline: (§1)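 Cancer cell lines were seeded in 1536-well plates in 7.5 μl DMEM/F12 or RPMI with 10% FBS, held 24 hours at 37°C and 5% CO2, then dosed for 72 hours (final DMSO typically 0.2%). Viability was read by CellTiter-Glo 2.0 luminescence and scaled between blank-well and DMSO-well means. The single-agent IC50 comes from dose responses fitted to a two-parameter logistic curve with a non-linear mixed effects model.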

AZD1775 = compound: C=CCn1c(=O)c2cnc(Nc3ccc(N4CCN(C)CC4)cc3)nc2n1-c1cccc(C(C)(C)O)n1 [AZD1775]; conditions: max 3 µM
Outline: as §1

Trametinib = compound: CC(=O)Nc1cccc(-n2c(=O)n(C3CC3)c(=O)c3c(Nc4ccc(I)cc4F)n(C)c(=O)c(C)c32)c1 [Trametinib]; conditions: max 1 µM
Outline: as §1

Palbociclib = compound: CC(=O)c1c(C)c2cnc(Nc3ccc(N4CCNCC4)cn3)nc2n(C2CCCC2)c1=O [Palbociclib]; conditions: max 10 µM
Outline: as §1

AZD1390 = compound: CC(C)n1c(=O)n(C)c2cnc3cc(F)c(-c4ccc(OCCCN5CCCCC5)nc4)cc3c21 [AZD1390]; conditions: max 0.3 µM
Outline: as §1

Venetoclax = compound: CC1(C)CCC(CN2CCN(c3ccc(C(=O)NS(=O)(=O)c4ccc(NCC5CCOCC5)c([N+](=O)[O-])c4)c(Oc4cnc5[nH]ccc5c4)c3)CC2)=C(c2ccc(Cl)cc2)C1 [Venetoclax]; conditions: max 1 µM
Outline: as §1

Dasatinib = compound: CC1=C(C(=CC=C1)Cl)NC(=O)C2=CN=C(S2)NC3=CC(=NC(=N3)C)N4CCN(CC4)CCO [Dasatinib]; conditions: max 2 µM
Outline: as §1

SG3199 = compound: CC1=CN2[C@@H](C1)C=NC3=CC(=C(C=C3C2=O)OC)OCCCCCOC4=C(C=C5C(=C4)N=C[C@@H]6CC(=CN6C5=O)C)OC [SG3199]; conditions: max 0.001 µM
Outline: as §1

AZD2811 = compound: CCN(CCO)CCCOc1ccc2c(Nc3cc(CC(=O)Nc4cccc(F)c4)[nH]n3)ncnc2c1 [AZD2811]; conditions: max 1 µM
Outline: as §1

SN-38 = compound: CCc1c2c(nc3ccc(O)cc13)-c1cc3c(c(=O)n1C2)COC(=O)[C@]3(O)CC [SN-38]; conditions: max 0.3 µM
Outline: as §1

AZD0156 = compound: CN(C)CCCOc1ccc(-c2ccc3ncc4c(c3c2)n(C2CCOCC2)c(=O)n4C)cn1 [AZD0156]; conditions: max 3 µM
Outline: as §1

AZD4320 = compound: CN(CC[C@H](CSC1=CC=CC=C1)NC2=C(C=C(C=C2)S(=O)(=O)NC(=O)C3=CC=C(C=C3)N4CCC(CC4)[C@H](C5=CC=CC=C5C6=CC=C(C=C6)Cl)O)S(=O)(=O)C(F)(F)F)CCO [AZD4320]; conditions: max 1 µM
Outline: as §1

Alisertib = compound: COc1cc(Nc2ncc3c(n2)-c2ccc(Cl)cc2C(c2c(F)cccc2OC)=NC3)ccc1C(=O)O [Alisertib]; conditions: max 10 µM
Outline: as §1

Gefitinib = compound: COc1cc2ncnc(Nc3ccc(F)c(Cl)c3)c2cc1OCCCN1CCOCC1 [Gefitinib]; conditions: max 10 µM
Outline: as §1

Prexasertib = compound: COc1cccc(OCCCN)c1-c1cc(Nc2cnc(C#N)cn2)n[nH]1 [Prexasertib]; conditions: max 1 µM
Outline: as §1

Doxorubicin = compound: COc1cccc2c1C(=O)c1c(O)c3c(c(O)c1C2=O)C[C@@](O)(C(=O)CO)C[C@@H]3O[C@H]1C[C@H](N)[C@H](O)[C@H](C)O1 [Doxorubicin]; conditions: max 1 µM
Outline: as §1

AZD5153 = compound: COc1nnc2ccc(N3CCC(c4ccc(OCCN5CCN(C)C(=O)[C@H]5C)cc4)CC3)nn12 [AZD5153]; conditions: max 1 µM
Outline: as §1

Lapatinib = compound: CS(=O)(=O)CCNCc1ccc(-c2ccc3ncnc(Nc4ccc(OCc5cccc(F)c5)c(Cl)c4)c3c2)o1 [Lapatinib]; conditions: max 10 µM
Outline: as §1

AZD8186 = compound: C[C@@H](Nc1cc(F)cc(F)c1)c1cc(C(=O)N(C)C)cc2c(=O)cc(N3CCOCC3)oc12 [AZD8186]; conditions: max 3 µM
Outline: as §1

Crizotinib = compound: C[C@@H](Oc1cc(-c2cnn(C3CCNCC3)c2)cnc1N)c1c(Cl)ccc(F)c1Cl [Crizotinib]; conditions: max 10 µM
Outline: as §1

Savolitinib = compound: C[C@@H](c1ccc2nccn2c1)n1nnc2ncc(-c3cnn(C)c3)nc21 [Savolitinib]; conditions: max 1 µM
Outline: as §1

AZD6738 = compound: C[C@@H]1COCCN1C2=NC(=NC(=C2)C3(CC3)[S@](=N)(=O)C)C4=C5C=CNC5=NC=C4 [AZD6738]; conditions: max 10 µM
Outline: as §1

AZD5991 = compound: Cc1c2c(nn1C)CSCc1cc(n(C)n1)CSc1cc(c3ccccc3c1)OCCCc1c(C(=O)O)n(C)c3c-2c(Cl)ccc13 [AZD5991]; conditions: max 1 µM
Outline: as §1

AZD7648 = compound: Cc1cc2ncnn2cc1Nc1ncc2c(n1)n(C1CCOCC1)c(=O)n2C [AZD7648]; conditions: max 10 µM
Outline: as §1

Taselisib = compound: Cc1nc(-c2cn3c(n2)-c2ccc(-c4cnn(C(C)(C)C(N)=O)c4)cc2OCC3)n(C(C)C)n1 [Taselisib]; conditions: max 10 µM
Outline: as §1

Selumetinib = compound: Cn1cnc2c(F)c(Nc3ccc(Br)cc3Cl)c(C(=O)NOCCO)cc21 [Selumetinib]; conditions: max 10 µM
Outline: as §1

MK-2206 = compound: NC1(c2ccc(-c3nc4ccn5c(=O)[nH]nc5c4cc3-c3ccccc3)cc2)CCC1 [MK-2206]; conditions: max 10 µM
Outline: as §1

Olaparib = compound: O=C(c1cc(Cc2n[nH]c(=O)c3ccccc23)ccc1F)N1CCN(C(=O)C2CC2)CC1 [Olaparib]; conditions: max 10 µM
Outline: as §1

Cell Line | IC50, cell viability 72 h (Capivasertib) [nM] | IC50, cell viability 72 h (AZD1775) [nM] | IC50, cell viability 72 h (Trametinib) [nM] | IC50, cell viability 72 h (Palbociclib) [nM] | IC50, cell viability 72 h (AZD1390) [nM] | IC50, cell viability 72 h (Venetoclax) [nM] | IC50, cell viability 72 h (Dasatinib) [nM] | IC50, cell viability 72 h (SG3199) [nM] | IC50, cell viability 72 h (AZD2811) [nM] | IC50, cell viability 72 h (SN-38) [nM] | IC50, cell viability 72 h (AZD0156) [nM] | IC50, cell viability 72 h (AZD4320) [nM] | IC50, cell viability 72 h (Alisertib) [nM] | IC50, cell viability 72 h (Gefitinib) [nM] | IC50, cell viability 72 h (Prexasertib) [nM] | IC50, cell viability 72 h (Doxorubicin) [nM] | IC50, cell viability 72 h (AZD5153) [nM] | IC50, cell viability 72 h (Lapatinib) [nM] | IC50, cell viability 72 h (AZD8186) [nM] | IC50, cell viability 72 h (Crizotinib) [nM] | IC50, cell viability 72 h (Savolitinib) [nM] | IC50, cell viability 72 h (AZD6738) [nM] | IC50, cell viability 72 h (AZD5991) [nM] | IC50, cell viability 72 h (AZD7648) [nM] | IC50, cell viability 72 h (Taselisib) [nM] | IC50, cell viability 72 h (Selumetinib) [nM] | IC50, cell viability 72 h (MK-2206) [nM] | IC50, cell viability 72 h (Olaparib) [nM]
PA-TU-8902 (Pancreatic Carcinoma) | > 10000 | > 3000 | > 1000 | > 10000 | > 300 | > 1000 | > 2000 | > 1 | > 1000 | > 300 | > 3000 | > 1000 | > 10000 | > 10000 | 693 | > 1000 | > 1000 | > 10000 | > 3000 | > 10000 | > 1000 | > 10000 | > 1000 | > 10000 | 3550 | > 10000 | > 10000 | > 10000
SKN-3 (Head and Neck Carcinoma) | > 10000 | 1530 | > 1000 | > 10000 | > 300 | > 1000 | > 2000 | > 1 | > 1000 | 251 | > 3000 | > 1000 | > 10000 | > 10000 | 380 | > 1000 | > 1000 | > 10000 | > 3000 | > 10000 | > 1000 | > 10000 | > 1000 | > 10000 | 9180 | > 10000 | > 10000 | > 10000
TYK-nu (Ovarian Carcinoma) | > 10000 | 763 | 301 | > 10000 | > 300 | > 1000 | > 2000 | > 1 | > 1000 | 10.8 | > 3000 | > 1000 | > 10000 | > 10000 | 57.2 | > 1000 | 280 | > 10000 | > 3000 | > 10000 | > 1000 | 5370 | > 1000 | > 10000 | > 10000 | 4360 | > 10000 | > 10000
